What was measured:
Assay type in all cases: functional
Staphylococcus aureus [1] = test: Antibacterial activity against Staphylococcus aureus SH1000 in stationary phase assessed as reduction in cell viability at 4 times MIC after 2 hrs by time kill kinetic assay relative to control
Trichophyton rubrum = test: Antifungal activity against Trichophyton rubrum infected in mouse assessed as reduction in fungal burden using light source at 42 J/cm'2 for 10 mins for 7 days; design: scale not given: the % may be the effect or the level left
Staphylococcus aureus [2] = test: Antibacterial activity against methicillin-resistant Staphylococcus aureus 180 assessed as planktonic cell killing at 50 ug/ml after 15 mins followed by irradiation with paterson lamp at 100 J/cm'2 by serial ten fold dilution method
Pseudomonas aeruginosa [3] = test: Antibiofilm activity against Pseudomonas aeruginosa ATCC 9027 assessed as decrease in cell viability using laser illumination at 13.2 J
Burkholderia cepacia = test: Antibacterial activity against Burkholderia cepacia assessed as cell killing at 250 ug/ml after 15 mins followed by irradiation with paterson lamp at 100 J/cm'2 by serial ten fold dilution method
Pseudomonas aeruginosa [4] = test: Antibacterial activity against Pseudomonas aeruginosa ATCC 9027 assessed as planktonic cell killing using laser illumination at 15.5 J/cm'2
Staphylococcus aureus [5] = test: Antibiofilm activity against Staphylococcus aureus SH1000 after 24 hrs by plate count method
Staphylococcus aureus [6] = test: Antibiofilm activity against Staphylococcus aureus SH1000 assessed as inhibition of planktonic bacterial growth after 24 hrs by turbidity method; settings: SH1000, 24 h
Staphylococcus aureus [7] = test: Antibacterial activity against methicillin-resistant Staphylococcus aureus 180 assessed as planktonic cell killing at 5 ug/ml after 15 mins followed by irradiation with paterson lamp at 100 J/cm'2 by serial ten fold dilution method
Candida albicans [8] = test: Antibiofilm activity against Candida albicans ATCC-MYA-273 assessed as cell killing at 1 uM irradiated with blue light at 48 J/cm'2 for 4 hrs by microplate reader method
Staphylococcus aureus [9] = test: Antibacterial activity against methicillin-resistant Staphylococcus aureus ATCC BAA-44 infected in porcine stratum corneum assessed as reduction in viable cells at 10 uM preincubated for 1 hr with bacteria prior to application of bacteria on skin incubated for 5 to 240 mins followed by irradiation with blue light
Candida albicans [10] = test: Antimicrobial activity against Candida albicans ATCC-MYA-273 assessed as reduction in planktonic cell viability at 0.5 uM irradiated with blue light at 12 J/cm'2 for 15 mins by ten fold serial dilution method

For `N=C(NCCCCCCNC(=N)NC(=N)Nc1ccc(Cl)cc1)NC(=N)Nc1ccc(Cl)cc1` [CHLORHEXIDINE], the Activity (Staphylococcus aureus [1]) was 3 deltalog10CFU/ml.

`Cc1cc2nc3ccc(N(C)C)cc3[s+]c2cc1N.[Cl-]` [TOLONIUM CHLORIDE] showed an Activity (Trichophyton rubrum) of 87%.

Compound `CN(C)c1ccc2nc3ccc(N(C)C)cc3[s+]c2c1.[Cl-]` [METHYLENE BLUE ANHYDROUS] has an Activity (Staphylococcus aureus [2]) of 100%, an Activity (Pseudomonas aeruginosa [3]) of over 99.999% and an Activity (Burkholderia cepacia) of 100%. For the same compound, the Activity (Pseudomonas aeruginosa [4]) was 100%.

With `C[N+](C)(C)CCCOc1cccc(-c2c3nc(cc4ccc([nH]4)c(-c4cccc(OCCC[N+](C)(C)C)c4)c4nc(cc5ccc2[nH]5)C=C4)C=C3)c1.[Cl-].[Cl-]` the MBEC (Staphylococcus aureus [5]) was 2 mg/L, the MIC (Staphylococcus aureus [6]) was 1 µg/mL and the Activity (Staphylococcus aureus [1]) was “>=5 deltalog10CFU/ml”.

Cetyltrimethylammonium bromide was tested, and the Activity (deltalog10CFU/ml) (Staphylococcus aureus [1]) was 3.

In the case of `C[n+]1ccc(-c2c3nc(c(-c4cc[n+](C)cc4)c4ccc([nH]4)c(-c4cc[n+](C)cc4)c4nc(c(-c5cc[n+](C)cc5)c5ccc2[nH]5)C=C4)C=C3)cc1.Cc1ccc(S(=O)(=O)[O-])cc1.Cc1ccc(S(=O)(=O)[O-])cc1.Cc1ccc(S(=O)(=O)[O-])cc1.Cc1ccc(S(=O)(=O)[O-])cc1`, the Activity (Staphylococcus aureus [7]) is reported as 100% and the Activity (Burkholderia cepacia) is reported as 99.9%.

`C[N+](C)(C)CCCOc1ccc(-c2c3nc(cc4ccc([nH]4)c(-c4ccc(OCCC[N+](C)(C)C)cc4)c4nc(cc5ccc2[nH]5)C=C4)C=C3)cc1.[Cl-].[Cl-]` [EXEPORFINIUM CHLORIDE] gave an Activity (Candida albicans [8]) of 5 deltalog10CFU/ml, an Activity (Staphylococcus aureus [9]) of 3.6 deltalog10CFU/ml and an Activity (Candida albicans [10]) of 6 deltalog10CFU/ml. The MBEC (Staphylococcus aureus [5]) was 2 mg/L, the MIC (Staphylococcus aureus [6]) was 1 µg/mL and the Activity (Staphylococcus aureus [1]) was “>=5 deltalog10CFU/ml”.
